From patent publication US10526316B2, “Quinoxaline and pyridopyrazine derivatives as PI3Kβ inhibitors” (Janssen Pharmaceutica NV, priority 2015, dated 2020)
Where two headings read alike, the source gives them in different places.

What was measured:
[1] = system: Akt phosphorylated at Thr308 in PC-3 cells; assay: Cellular assay: phosphorylation of Akt at Thr308 in PC-3 cells (MSD ELISA); format: cell-based; details: PC-3 cells, 60 min compound incubation, MSD ELISA, read-out: IC50 pAkt_Thr308
Method in brief: (§1)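 After lysis of treated cells (60 min, 37° C, 0.3% DMSO), phospho-Akt levels were measured by MSD electrochemiluminescence ELISA. Potency was derived from concentration-response curves fitted over five concentrations.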

kinase enzymes [2] = target: T1, kinase enzymes (Homo sapiens, UniProt P42345); assay: Enzyme binding assay (KINOMEscan, DiscoveRx), further kinases of Table A; details: MTOR_h
T1 construct: purchased DiscoveRx Corporation, San Diego (contract service, KINOMEscan)
Method in brief: (§2)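 Affinity for each kinase was determined by KINOMEscan profiling.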

kinase enzymes [3] = target: T2, kinase enzymes (Homo sapiens, UniProt P42336); assay: as above; details: PIK3Cα_h
T2 construct: purchased DiscoveRx Corporation, San Diego (contract service, KINOMEscan)
Method in brief: as §2

kinase enzymes [4] = target: T3, kinase enzymes (Homo sapiens, UniProt P48736); assay: as above; details: PIK3Cγ_h
T3 construct: purchased DiscoveRx Corporation, San Diego (contract service, KINOMEscan)
Method in brief: as §2

[5] = system: Akt phosphorylated at Ser473 in PC-3 cells; assay: Cellular assay: phosphorylation of Akt at Ser473 in PC-3 cells (MSD ELISA); format: cell-based; details: PC-3 cells, 60 min compound incubation, MSD ELISA, read-out: IC50 pAkt_S473
Method in brief: as §1

PI3Kβ = target: T4, PI3Kβ (Homo sapiens, UniProt P42338); assay: Enzyme binding assay (KINOMEscan, DiscoveRx); details: PIK3Cβ_h, read-out: Kd PIK3Cβ_h
T4 construct: purchased DiscoveRx Corporation, San Diego (contract service, KINOMEscan)
Method in brief: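 Values are Kd in nM, the binding constant of each inhibitor for the kinase, obtained from a KINOMEscan enzyme binding assay.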

PI3Kδ = target: T5, PI3Kδ (Homo sapiens, UniProt O00329); assay: Enzyme binding assay (KINOMEscan, DiscoveRx); details: PIK3Cδ_h
T5 construct: purchased DiscoveRx Corporation, San Diego (contract service, KINOMEscan)
T5 sequence (O00329 1-1044): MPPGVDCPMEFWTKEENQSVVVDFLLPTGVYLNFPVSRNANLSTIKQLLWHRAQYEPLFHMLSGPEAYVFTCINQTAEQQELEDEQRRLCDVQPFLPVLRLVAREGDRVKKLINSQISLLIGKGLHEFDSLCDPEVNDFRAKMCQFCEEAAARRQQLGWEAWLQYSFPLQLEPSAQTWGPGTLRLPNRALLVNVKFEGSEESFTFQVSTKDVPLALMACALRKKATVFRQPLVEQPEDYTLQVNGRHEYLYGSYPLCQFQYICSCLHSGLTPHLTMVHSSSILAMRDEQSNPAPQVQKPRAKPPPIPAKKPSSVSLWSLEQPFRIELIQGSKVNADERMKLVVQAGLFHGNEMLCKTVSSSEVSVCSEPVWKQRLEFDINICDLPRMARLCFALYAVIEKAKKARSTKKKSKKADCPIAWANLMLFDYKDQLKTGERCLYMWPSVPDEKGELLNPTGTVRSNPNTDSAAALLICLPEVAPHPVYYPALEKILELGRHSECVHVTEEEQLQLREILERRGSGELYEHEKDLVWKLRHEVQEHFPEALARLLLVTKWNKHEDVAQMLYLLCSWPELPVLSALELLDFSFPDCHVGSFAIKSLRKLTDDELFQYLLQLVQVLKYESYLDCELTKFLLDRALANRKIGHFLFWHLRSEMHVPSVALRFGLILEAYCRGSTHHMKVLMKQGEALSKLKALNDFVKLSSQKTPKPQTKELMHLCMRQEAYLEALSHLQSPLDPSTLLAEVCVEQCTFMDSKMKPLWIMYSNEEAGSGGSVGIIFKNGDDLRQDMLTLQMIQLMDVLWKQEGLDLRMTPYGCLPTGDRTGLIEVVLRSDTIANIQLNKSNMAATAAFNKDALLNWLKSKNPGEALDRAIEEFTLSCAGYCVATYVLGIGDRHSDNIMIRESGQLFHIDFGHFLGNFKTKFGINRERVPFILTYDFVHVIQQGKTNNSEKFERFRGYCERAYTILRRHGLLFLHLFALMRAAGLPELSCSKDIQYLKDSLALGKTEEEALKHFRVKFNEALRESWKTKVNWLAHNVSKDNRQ
Method in brief: as §2

T2 sequence (P42336 whole entry): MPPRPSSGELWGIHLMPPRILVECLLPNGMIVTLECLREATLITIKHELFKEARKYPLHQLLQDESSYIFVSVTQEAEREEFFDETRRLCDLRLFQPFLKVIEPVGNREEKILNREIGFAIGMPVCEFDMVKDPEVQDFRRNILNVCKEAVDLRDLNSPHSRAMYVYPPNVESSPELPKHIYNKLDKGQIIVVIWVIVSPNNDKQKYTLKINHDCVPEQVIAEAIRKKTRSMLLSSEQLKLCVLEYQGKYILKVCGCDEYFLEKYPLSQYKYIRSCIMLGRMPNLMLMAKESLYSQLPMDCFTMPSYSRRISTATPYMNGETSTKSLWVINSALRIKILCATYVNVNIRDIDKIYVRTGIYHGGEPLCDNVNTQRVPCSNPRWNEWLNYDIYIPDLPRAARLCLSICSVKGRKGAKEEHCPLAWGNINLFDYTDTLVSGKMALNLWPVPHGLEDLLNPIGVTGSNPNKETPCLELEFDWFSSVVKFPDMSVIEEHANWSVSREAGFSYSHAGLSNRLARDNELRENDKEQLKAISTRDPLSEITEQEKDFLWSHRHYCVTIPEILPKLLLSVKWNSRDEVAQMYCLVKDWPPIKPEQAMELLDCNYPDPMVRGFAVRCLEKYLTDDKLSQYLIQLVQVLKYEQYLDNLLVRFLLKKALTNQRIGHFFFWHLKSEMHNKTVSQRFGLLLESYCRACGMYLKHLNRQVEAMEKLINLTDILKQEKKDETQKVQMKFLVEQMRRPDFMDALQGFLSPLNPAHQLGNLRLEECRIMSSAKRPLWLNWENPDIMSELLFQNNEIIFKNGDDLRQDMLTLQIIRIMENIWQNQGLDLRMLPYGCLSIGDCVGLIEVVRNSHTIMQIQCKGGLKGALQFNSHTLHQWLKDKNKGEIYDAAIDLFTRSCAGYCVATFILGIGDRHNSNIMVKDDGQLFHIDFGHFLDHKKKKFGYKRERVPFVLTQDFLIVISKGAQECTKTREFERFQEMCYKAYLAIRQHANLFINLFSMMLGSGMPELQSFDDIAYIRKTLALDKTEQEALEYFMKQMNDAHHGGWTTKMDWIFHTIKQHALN
T4 sequence (P42338 whole entry): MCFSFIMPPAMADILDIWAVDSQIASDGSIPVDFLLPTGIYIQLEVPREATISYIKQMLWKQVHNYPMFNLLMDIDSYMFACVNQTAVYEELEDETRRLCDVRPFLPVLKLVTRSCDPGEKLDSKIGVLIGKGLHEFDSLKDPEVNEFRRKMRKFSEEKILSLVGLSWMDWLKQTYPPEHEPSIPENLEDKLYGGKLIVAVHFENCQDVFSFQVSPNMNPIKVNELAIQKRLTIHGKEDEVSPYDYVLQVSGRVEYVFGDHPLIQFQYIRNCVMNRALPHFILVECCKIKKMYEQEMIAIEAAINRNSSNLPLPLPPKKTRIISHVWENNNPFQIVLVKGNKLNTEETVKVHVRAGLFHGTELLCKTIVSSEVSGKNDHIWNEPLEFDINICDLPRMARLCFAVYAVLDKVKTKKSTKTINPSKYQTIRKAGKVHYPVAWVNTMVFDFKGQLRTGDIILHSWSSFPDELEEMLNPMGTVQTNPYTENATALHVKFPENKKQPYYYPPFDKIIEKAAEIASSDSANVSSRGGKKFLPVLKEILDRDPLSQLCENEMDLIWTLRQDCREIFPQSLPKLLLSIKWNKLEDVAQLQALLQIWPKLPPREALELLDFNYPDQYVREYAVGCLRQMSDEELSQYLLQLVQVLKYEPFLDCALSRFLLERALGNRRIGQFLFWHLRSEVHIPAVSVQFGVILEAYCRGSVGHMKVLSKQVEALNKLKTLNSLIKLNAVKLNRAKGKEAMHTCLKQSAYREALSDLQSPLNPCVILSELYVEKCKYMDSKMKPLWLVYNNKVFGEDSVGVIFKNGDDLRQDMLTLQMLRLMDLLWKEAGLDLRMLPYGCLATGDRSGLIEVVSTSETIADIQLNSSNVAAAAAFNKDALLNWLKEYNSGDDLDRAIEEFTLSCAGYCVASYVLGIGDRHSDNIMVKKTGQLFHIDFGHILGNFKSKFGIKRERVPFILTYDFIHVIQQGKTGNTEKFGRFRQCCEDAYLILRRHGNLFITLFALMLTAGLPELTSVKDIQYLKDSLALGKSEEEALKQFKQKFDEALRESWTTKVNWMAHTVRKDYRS
T3 sequence (P48736 whole entry): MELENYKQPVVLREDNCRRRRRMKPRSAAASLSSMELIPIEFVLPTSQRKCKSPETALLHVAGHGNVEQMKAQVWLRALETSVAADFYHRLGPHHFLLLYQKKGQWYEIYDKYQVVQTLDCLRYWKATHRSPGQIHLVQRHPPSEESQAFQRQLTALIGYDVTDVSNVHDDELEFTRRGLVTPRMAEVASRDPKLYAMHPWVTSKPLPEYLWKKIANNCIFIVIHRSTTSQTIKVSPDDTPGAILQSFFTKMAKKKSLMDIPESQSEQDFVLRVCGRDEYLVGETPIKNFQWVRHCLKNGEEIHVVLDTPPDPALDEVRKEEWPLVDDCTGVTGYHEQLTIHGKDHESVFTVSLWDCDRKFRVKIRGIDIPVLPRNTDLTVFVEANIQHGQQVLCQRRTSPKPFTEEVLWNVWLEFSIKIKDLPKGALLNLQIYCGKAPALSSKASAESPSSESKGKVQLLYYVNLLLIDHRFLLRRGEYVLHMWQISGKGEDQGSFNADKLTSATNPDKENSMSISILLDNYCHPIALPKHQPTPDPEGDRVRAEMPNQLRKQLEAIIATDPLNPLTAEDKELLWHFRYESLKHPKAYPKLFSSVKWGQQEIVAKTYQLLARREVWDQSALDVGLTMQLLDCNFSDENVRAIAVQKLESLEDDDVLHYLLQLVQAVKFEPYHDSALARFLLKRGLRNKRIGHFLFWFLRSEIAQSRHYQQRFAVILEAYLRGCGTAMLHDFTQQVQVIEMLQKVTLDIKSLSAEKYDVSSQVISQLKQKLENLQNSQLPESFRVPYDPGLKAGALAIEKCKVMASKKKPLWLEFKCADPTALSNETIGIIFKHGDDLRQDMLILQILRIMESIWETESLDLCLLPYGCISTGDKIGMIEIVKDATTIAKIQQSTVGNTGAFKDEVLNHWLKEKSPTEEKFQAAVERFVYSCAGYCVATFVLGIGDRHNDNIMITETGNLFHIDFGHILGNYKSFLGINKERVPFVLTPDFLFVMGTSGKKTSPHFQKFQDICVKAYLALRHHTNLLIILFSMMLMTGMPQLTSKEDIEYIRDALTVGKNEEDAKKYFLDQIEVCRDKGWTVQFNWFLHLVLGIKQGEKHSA

| SMILES | IC50 ([1]; Homo sapiens, PC-3, 1 h) [nM] | melting point [°C] | Kd (kinase enzymes [2]) [µM] | Kd (kinase enzymes [3]) [nM] | Kd (kinase enzymes [4]) [µM] | IC50 ([5]; Homo sapiens, PC-3, 1 h) [nM] | Kd (PI3Kβ) [nM] | Kd (PI3Kδ) [nM] | IC50 [1] [nM] | IC50 [5] [nM] |
| --- | --- | --- | --- | --- | --- | --- | --- | --- | --- | --- |
| CCN(c1cccc(F)c1)C(C)c1cc(C(=O)N2CCOCC2)cc2ncc(N3CCOCC3)nc12 (centres unmarked) [Compound 20] | 372 | 80 | 21.9 | 3630 | 22.4 | 363 | 17 | 1550 | – | – |
| CC(C)NCCNC(=O)c1cc(C(C)Nc2ccc(F)c(F)c2)c2nc(N3CCOCC3)cnc2c1 (centres unmarked) [Compound 364] | 43 | 80 | > 30.2 | 7410 | 13.8 | 49 | 5 | 813 | – | – |
| Cc1cccc(NC(C)c2cc(C(=O)N3CCOCC3)cc3ncc(N4CCOCC4)nc23)c1 (centres unmarked) [Compound 120] | 269 | 80 | > 30.2 | 6760 | > 30.2 | 479 | 14 | 2190 | – | – |
| CNCCNC(=O)c1cc(C(C)Nc2cc(F)cc(F)c2)c2nc(N3CCOCC3)cnc2c1 (single isomer, unassigned) [Compound 406a] | – | 80 | 22.9 | 372 | 1.05 | – | 0.1 | 39 | 4 | 8 |
| Cc1c(F)cccc1CN(C)c1cc(C(=O)N2CC3(C2)CS(=O)(=O)C3)cc2ncc(N3CCOCC3)nc12 [Compound 308] | > 513 | 195 | > 30.2 | > 30200 | > 30.2 | > 513 | 324 | 7240 | – | – |
| CC(Nc1cc(F)cc(F)c1)c1cc(CN2C[C@@H](C)O[C@@H](C)C2)cc2ncc(N3CCOCC3)nc12 (single isomer, unassigned) [Compound 206] | – | 80 | > 30.2 | > 30200 | > 30.2 | – | 7080 | > 30200 | > 513 | > 513 |
| CC(Nc1ccc(F)c(F)c1)c1cc(C(=O)N2CCN3CCC[C@H]3C2)cc2ncc(N3CCOCC3)nc12 (some centres unmarked) [Compound 287] | 48 | 80 | > 30.2 | 2690 | 26.3 | 151 | 13 | 977 | – | – |
| CC(Oc1cccc(F)c1)c1cc(C(=O)NCCO)cc2ncc(N3CCOCC3)nc12 (single isomer, unassigned) [Compound 334b] | – | 134 | 17.4 | 21400 | 11 | – | 457 | 7590 | > 513 | > 513 |
| CC(Nc1cccc(Br)c1)c1cc(C(=O)N2CCOCC2)cc2ncc(N3CCOCC3)nc12 (centres unmarked) [Compound 124] | 93 | 80 | 8.13 | 1070 | 7.76 | 151 | 4 | 575 | – | – |
| CC(Nc1cc(F)cc(F)c1)c1cc(C(=O)NS(N)(=O)=O)cc2ncc(N3CCOCC3)nc12 (single isomer, unassigned) [Compound 243b] | – | 200 | 1.35 | 1660 | 1.95 | – | 14 | 3390 | > 513 | > 513 |
| CCN1CCN(C(=O)c2cc(C(C)Nc3cccc(F)c3)c3nc(N4CCOCC4)cnc3c2)CC1 (single isomer, unassigned) [Compound 114] | – | 303 | > 30.2 | 1620 | 6.92 | – | 1 | 186 | 18 | 50 |
| CC(Nc1ccc(F)c(F)c1)c1cc(C(=O)N2CCC[C@H](O)C2)cc2ncc(N3CCOCC3)nc12 (single isomer, unassigned) [Compound 302a] | > 513 | 135 | > 30.2 | > 30200 | > 30.2 | > 513 | 1320 | > 30200 | – | – |
| O=C(NCCO)c1cc(NCc2cccc(F)c2C2CCNCC2)c2nc(N3CCOCC3)cnc2c1 [Compound 317] | > 513 | 167 | > 30.2 | 6170 | 20.9 | > 513 | 13 | 708 | – | – |

Further lines, results first:

| IC50 ([1]; Homo sapiens, PC-3, 1 h) [nM] | melting point [°C] | Kd (kinase enzymes [2]) [µM] | Kd (kinase enzymes [3]) [nM] | Kd (kinase enzymes [4]) [µM] | IC50 ([5]; Homo sapiens, PC-3, 1 h) [nM] | Kd (PI3Kβ) [nM] | Kd (PI3Kδ) [nM] | IC50 [1] [nM] | IC50 [5] [nM] | SMILES |
| --- | --- | --- | --- | --- | --- | --- | --- | --- | --- | --- |
| 91 | 110 | > 30.2 | 2880 | 3.72 | 138 | 3 | 501 | – | – | CC(Nc1ccccc1)c1cc(C(=O)N(C)C)cc2ncc(N3CCOCC3)nc12 (centres unmarked) [Compound 150] |
| 427 | 315 | 15.1 | 5370 | 1.51 | > 513 | 43 | 3240 | – | – | CN(C)C(=O)c1cc(C(CO)N(C)c2cccc(F)c2)c2nc(N3CCOCC3)cnc2c1 (centres unmarked) [Compound 301] |
| 4 | 100 | 8.13 | 79 | 0.891 | 9 | 0.5 | 27 | – | – | O=C(c1cc(C2CCCN2c2cc(F)cc(F)c2)c2nc(N3CCOCC3)cnc2c1)N1CC(CO)C1 (centres unmarked) [Compound 63] |
| 22 | 80 | > 30.2 | 389 | 1.38 | 31 | 1 | 141 | – | – | COc1cccc(N2CCCC2c2cc(C(=O)N(C)C)cc3ncc(N4CCOCC4)nc23)c1 (centres unmarked) [Compound 41] |
| 166 | 80 | > 30.2 | 2460 | 20.9 | 195 | 18 | 617 | – | – | C[C@H](CO)NCc1ccc(F)cc1N1CCCC1c1cc(C(=O)N(C)C)cc2ncc(N3CCOCC3)nc12 (mixture of isomers) [Compound 67] |
| 12 | 80 | 21.4 | 79 | 0.178 | – | 0.1 | 29 | – | 8 | OC(CN1CCC1)c1cc(C2CCCN2c2cc(F)cc(F)c2)c2nc(N3CCOCC3)cnc2c1 (single isomer, unassigned) [Compound 94] |
| 11 | 80 | > 30.2 | 331 | 1.48 | 16 | 1 | 56 | – | – | CN(C)C(=O)c1cc(C2CCCN2c2ccc(F)cc2)c2nc(N3CCOCC3)cnc2c1 (centres unmarked) [Compound 42] |
| 3 | 189 | > 30.2 | 142 | 0.336 | 4 | 0.5 | 74 | – | – | OCc1cc(C2CCCN2c2cc(F)cc(F)c2)c2nc(N3CCOCC3)cnc2c1 (centres unmarked) [Compound 10] |
| > 513 | 80 | > 30.2 | > 30200 | > 30.2 | > 513 | 3980 | > 30200 | – | – | Cc1c(N2CCCC2c2cc(C(=O)N(C)C)cc3ncc(N4CCOCC4)nc23)cccc1C(F)(F)F (centres unmarked) [Compound 55] |
